Source: US20250051300A1, “GRAM-NEGATIVE SPECIFIC ANTIBIOTICS SPARING EFFECT ON GUT MICROBIOME” (THE BOARD OF TRUSTEES OF THE UNIVERSITY OF ILLINOIS, priority 2021, published 2025)
Values after ≈ are worked out from the molar mass of the structure shown. Read-outs that look alike come from different tables or passages of the source.

How the values were obtained:
Aqueous solubility limit = type: physicochemical; conditions: limit to which compounds were tested in MIC assays
[1] = Mouse maximum tolerated dose / tolerability; type: in vivo
Protocol: Mouse maximum tolerated dose (MTD) of compound 2 and lolamycin. […] In these studies, 10- to 12-week-old female C57BL/6 mice purchased from Charles River Laboratories were used. The maximum tolerated dose (MTD) of a single compound via IP injection was determined first. Compound 2 and lolamycin were formulated in 50% DMSO, 50% PEG400. Compound 2 and lolamycin were given by intraperitoneal (IP) injection. All the mice were monitored for signs of toxicity for 2 weeks. For multiple doses, the compound was given by daily IP injection for 5 consecutive days and the mice were monitored for signs of toxicity for 1 month. The MTD was the highest dosage with acceptable toxicity (for example, <20% weight loss).
Next, the MTD of lolamycin via oral gavage was determined. Lolamycin was formulated in 20% DMSO, 30% Water, and 50% PEG400. Lolamycin was given via oral gavage. All the mice were monitored for signs of toxicity for 2 weeks. For multiple doses, compound was given twice daily orally for 3 consecutive days and the mice were monitored for signs of toxicity. The MTD was the highest dosage with acceptable toxicity (for example, <20% weight loss). […] The MTD of lolamycin was used to inform the dosing schedule used in subsequent efficacy studies.

Escherichia coli [2] = test: MIC, micro-dilution broth method (CLSI); type: cell-based; conditions: Escherichia coli
Enterobacter cloacae = test: MIC, micro-dilution broth method (CLSI); type: cell-based; conditions: Enterobacter cloacae, read-out: MIC
[3] = test system: clinical isolates of E. coli, K. pneumoniae, and E. cloacae; test: Susceptibility of panel of multidrug-resistant clinical isolates; conditions: MDR clinical isolates of E. coli
Escherichia coli [4] = test: Resistance frequency, large inoculum method; type: cell-based
Protocol: Selection of resistant mutants. Resistant mutants were selected using the large inoculum method. Briefly, E. coli BW25113, K. pneumoniae ATCC 27736, or E. cloacae ATCC 29893 (˜1.0×10^7 c.f.u.) was plated on 100-mm plates of Luria Bertani agar containing 8, 16, 32, or 64 μg/mL, lolamycin. For E. coli ΔtolC (JW5503), ˜1.0×10^7 c.f.u. was plated on 100-mm plates of Luria Bertani agar containing 0.063, 0.13, 0.25, 0.5 μg/mL lolamycin. Colonies were visible after incubating at 37° C. for 48 h. Resistant colonies were confirmed by growing colonies in selective media with the same concentration of lolamycin.

E. coli AR0349 [5] = test: Acute pneumonia bacterial burden model; type: in vivo, CD-1 mice; conditions: lungs, 72 h post-infection
E. coli AR0349 [6] = test: Bacterial sepsis survival model; type: in vivo, CD-1 mice

Cc1cc(-c2c[nH]nc2-c2cccc(OCc3cccc(C#N)c3)c2)cc(C)n1 [Compound 12, 3-((3-(4-(2,6-dimethylpyridin-4-yl)-1H-pyrazol-3-yl)phenoxy)methyl)benzonitrile]
solubility (Aqueous solubility limit; aqueous medium (not further specified)): 128 µg/mL (≈ 336 µM) | solubility (Aqueous solubility limit): 128 µg/mL (≈ 336 µM) | tolerability ([1]; C57BL/6 mice, daily dosing of 200 mg/kg for 5 consecutive days, IP): well tolerated | tolerability ([1]; C57BL/6 mice, single dose of 200 mg/kg, IP): well tolerated | tolerability ([1]; mice, 100 mg/kg twice a day for three days, IP): well-tolerated | tolerability ([1]; mice, 200 mg/kg twice a day for three days, oral gavage, listed as Lolamycin, 200 mg/kg): well tolerated | tolerability ([1]; mice, 200 mg/kg twice a day for three days, oral gavage, listed as lolamycin, 200 mg/kg): well-tolerated | MIC (Escherichia coli [2]; ATCC25922, E. coli ATCC 25922, read-out: MIC): 1 µg/mL (≈ 2.63 µM) | MIC (Escherichia coli [2]; ATCCBAA2340, E. coli ATCC BAA-2340, read-out: MIC): 2 µg/mL (≈ 5.26 µM) | MIC (Escherichia coli [2]; ATCCBAA2469, E. coli ATCC BAA-2469, read-out: MIC): 1 µg/mL (≈ 2.63 µM) | MIC (Escherichia coli [2]; ATCCBAA2471, E. coli ATCC BAA-2471, read-out: MIC): 4 µg/mL (≈ 10.5 µM) | MIC (Escherichia coli [2]; E. coli AR0048, read-out: MIC): 4 µg/mL (≈ 10.5 µM) | MIC (Escherichia coli [2]; E. coli AR0055, read-out: MIC): 2 µg/mL (≈ 5.26 µM) | MIC (Escherichia coli [2]; E. coli AR0058, read-out: MIC): 2 µg/mL (≈ 5.26 µM) | MIC (Escherichia coli [2]; E. coli AR0061, read-out: MIC): 8 µg/mL (≈ 21 µM) | MIC (Escherichia coli [2]; E. coli AR0067, read-out: MIC): 2 µg/mL (≈ 5.26 µM) | MIC (Escherichia coli [2]; E. coli AR0069, read-out: MIC): 2 µg/mL (≈ 5.26 µM) | MIC (Escherichia coli [2]; E. coli AR0077, read-out: MIC): 1 µg/mL (≈ 2.63 µM) | MIC (Escherichia coli [2]; E. coli AR0081, read-out: MIC): 2 µg/mL (≈ 5.26 µM) | MIC (Escherichia coli [2]; E. coli AR0084, read-out: MIC): 2 µg/mL (≈ 5.26 µM) | MIC (Escherichia coli [2]; E. coli AR0085, read-out: MIC): 1 µg/mL (≈ 2.63 µM) | MIC (Escherichia coli [2]; E. coli AR0086, read-out: MIC): 0.5 µg/mL (≈ 1.31 µM) | MIC (Escherichia coli [2]; E. coli AR0089, read-out: MIC): 2 µg/mL (≈ 5.26 µM) | MIC (Escherichia coli [2]; E. coli AR0104, read-out: MIC): 1 µg/mL (≈ 2.63 µM) | MIC (Escherichia coli [2]; E. coli AR0114, read-out: MIC): 2 µg/mL (≈ 5.26 µM) | MIC (Escherichia coli [2]; E. coli AR0118, read-out: MIC): 1 µg/mL (≈ 2.63 µM) | MIC (Escherichia coli [2]; E. coli AR0119, read-out: MIC): 4 µg/mL (≈ 10.5 µM) | MIC (Escherichia coli [2]; E. coli AR0128, read-out: MIC): 1 µg/mL (≈ 2.63 µM) | MIC (Escherichia coli [2]; E. coli AR0137, read-out: MIC): 2 µg/mL (≈ 5.26 µM) | MIC (Escherichia coli [2]; E. coli AR0149, read-out: MIC): 2 µg/mL (≈ 5.26 µM) | MIC (Escherichia coli [2]; E. coli AR0150, read-out: MIC): 1 µg/mL (≈ 2.63 µM) | MIC (Escherichia coli [2]; E. coli AR0151, read-out: MIC): 2 µg/mL (≈ 5.26 µM) | MIC (Escherichia coli [2]; E. coli AR0162, read-out: MIC): 4 µg/mL (≈ 10.5 µM) | MIC (Escherichia coli [2]; E. coli AR0346, read-out: MIC): 2 µg/mL (≈ 5.26 µM) | MIC (Escherichia coli [2]; E. coli AR0348, read-out: MIC): 2 µg/mL (≈ 5.26 µM) | MIC (Escherichia coli [2]; E. coli AR0350, read-out: MIC): 1 µg/mL (≈ 2.63 µM) | MIC (Escherichia coli [2]; E. coli AR0493, read-out: MIC): 4 µg/mL (≈ 10.5 µM) | MIC (Escherichia coli [2]; E. coli AR0494, read-out: MIC): 4 µg/mL (≈ 10.5 µM) | MIC (Escherichia coli [2]; E. coli AR0495, read-out: MIC): 2 µg/mL (≈ 5.26 µM) | MIC (Escherichia coli [2]; E. coli AR0541, read-out: MIC): 1 µg/mL (≈ 2.63 µM) | MIC (Escherichia coli [2]; E. coli AR0543, read-out: MIC): 4 µg/mL (≈ 10.5 µM) | MIC (Escherichia coli [2]; E. coli AR0546, read-out: MIC): 0.5 µg/mL (≈ 1.31 µM) | MIC (Escherichia coli [2]; E. coli AR0551, read-out: MIC): 2 µg/mL (≈ 5.26 µM) | MIC (Escherichia coli [2]; E. coli AR0559, read-out: MIC): 2 µg/mL (≈ 5.26 µM) | MIC (Escherichia coli [2]; E. coli AR-0349 (colistin-resistant clinical isolate), read-out: MIC): 1 µg/mL (≈ 2.63 µM) | MIC (Escherichia coli [2]; E. coli AR-0549, read-out: MIC): 2 µg/mL (≈ 5.26 µM) | MIC (Escherichia coli [2]; E. coli ELZ 4004, read-out: MIC): 2 µg/mL (≈ 5.26 µM) | MIC (Escherichia coli [2]; E. coli ELZ 4017, read-out: MIC): 2 µg/mL (≈ 5.26 µM) | MIC (Escherichia coli [2]; E. coli ELZ 4042, read-out: MIC): 4 µg/mL (≈ 10.5 µM) | MIC (Escherichia coli [2]; E. coli ELZ 4072, read-out: MIC): 2 µg/mL (≈ 5.26 µM) | MIC (Escherichia coli [2]; E. coli ELZ 4081, read-out: MIC): 2 µg/mL (≈ 5.26 µM) | MIC (Escherichia coli [2]; E. coli ELZ 4139, read-out: MIC): 8 µg/mL (≈ 21 µM) | MIC (Escherichia coli [2]; E. coli ELZ 4239, read-out: MIC): 4 µg/mL (≈ 10.5 µM) | MIC (Escherichia coli [2]; E. coli ELZ 4277, read-out: MIC): 2 µg/mL (≈ 5.26 µM) | MIC (Escherichia coli [2]; E. coli ELZ 4346, read-out: MIC): 2 µg/mL (≈ 5.26 µM) | MIC (Escherichia coli [2]; E. coli ΔrfaC JW3596 (permeability mutant)): 0.06 µg/mL (≈ 0.158 µM) | MIC (Escherichia coli [2]; E. coli ΔtolC JW5503 (efflux-deficient)): 0.008 µg/mL (≈ 0.021 µM) | MIC (Enterobacter cloacae; ATCC29893, E. cloacae ATCC 29893): 4 µg/mL (≈ 10.5 µM) | MIC (Enterobacter cloacae; ATCCBAA2341, E. cloacae ATCC BAA-2341): 16 µg/mL (≈ 42.1 µM) | MIC (Enterobacter cloacae; ATCCBAA2468, E. cloacae ATCC BAA-2468): 4 µg/mL (≈ 10.5 µM) | MIC (Enterobacter cloacae; E. cloacae AR0032): 2 µg/mL (≈ 5.26 µM) | MIC (Enterobacter cloacae; E. cloacae AR0038): 8 µg/mL (≈ 21 µM) | MIC (Enterobacter cloacae; E. cloacae AR0050): 0.5 µg/mL (≈ 1.31 µM) | MIC (Enterobacter cloacae; E. cloacae AR0053): 4 µg/mL (≈ 10.5 µM) | MIC (Enterobacter cloacae; E. cloacae AR0060): 1 µg/mL (≈ 2.63 µM) | MIC (Enterobacter cloacae; E. cloacae AR0065): 1 µg/mL (≈ 2.63 µM) | MIC (Enterobacter cloacae; E. cloacae AR0072): 4 µg/mL (≈ 10.5 µM) | MIC (Enterobacter cloacae; E. cloacae AR0073): 16 µg/mL (≈ 42.1 µM) | MIC (Enterobacter cloacae; E. cloacae AR0093): 2 µg/mL (≈ 5.26 µM) | MIC (Enterobacter cloacae; E. cloacae AR0132): 1 µg/mL (≈ 2.63 µM) | MIC (Enterobacter cloacae; E. cloacae AR0136): 4 µg/mL (≈ 10.5 µM) | MIC (Enterobacter cloacae; E. cloacae AR0154): 0.25 µg/mL (≈ 0.657 µM) | MIC (Enterobacter cloacae; E. cloacae AR0164): 2 µg/mL (≈ 5.26 µM) | MIC (Enterobacter cloacae; E. cloacae AR0544): 4 µg/mL (≈ 10.5 µM) | MIC (Enterobacter cloacae; E. cloacae AR0545): 1 µg/mL (≈ 2.63 µM) | MIC (Enterobacter cloacae; E. cloacae AR-0163): 8 µg/mL (≈ 21 µM) | concentration that kills 50% of the strains [3]: ~2 µg/mL | concentration that kills 90% of the strains [3]: ~8 µg/mL | resistance frequency (Escherichia coli [4]; E. coli ΔtolC JW5503, 32×MIC): 1.8×10^−8 | resistance frequency (Escherichia coli [4]; wild-type E. coli BW25113, 8×MIC): 3.4×10^−7 | reduction in bacterial burden (E. coli AR0349 [5]; 100 mg/kg IP twice a day for 3 days): 2 log | reduction in bacterial burden vs vehicle (E. coli AR0349 [5]; 200 mg/kg PO twice a day for 3 days): 3 log | mice with septic infection rescued (survival) (E. coli AR0349 [6]; 100 mg/kg IP twice daily for 3 days): 100% | mice with septic infection rescued (survival) (E. coli AR0349 [6]; 200 mg/kg PO twice daily for 3 days): over 70%
